According to article PMC11503657 (Chemical Science, 2024):

Experiments:
[1] = biological target: CuAβ1–16 complex (Homo sapiens, UniProt P05067); format: biochemical; settings: pH 7.4
[2] = biological target: CuZnAβ1–16 (Homo sapiens, UniProt P05067); format: biochemical; settings: pH 7.4

How did the “ROS production: % of Asc consumption in 30 min” value [1] turn out when `O=C(O)CN(CCN(CC(=O)O)CC(=O)O)CC(=O)O` [EDTA, 2,2′,2′′,2′′′-(ethane-1,2-diyldinitrilo)tetraacetic acid] was run?
The value was 11.3%.

What about the “ROS production: % of ROS arrest” value [1] of the same compound?
Its value is 88.7%.

And the “ROS production: % of Asc consumption in 30 min” value [2]?
Its value is 100%.

And the “ROS production: % of ROS arrest” value [2]?
Its value is 0%.
